The test system of assay [1] is advanced glycation endproducts (AGEs) formation. The experiment in a line: AGEs formation inhibitory activity, bovine serum albumin with fructose and glucose, fluorescence. Type of assay: biochemical. The settings on record: for IC50: ND = not detected. How it is done: Inhibition of AGEs formation was determined by an assay containing bovine serum albumin (10 mg/mL) in 50 mM phosphate buffer (pH 7.4) with 0.02% sodium azide, to which 0.4 M fructose and glucose was added. The assay mixture was incubated at 60°C for 2 days. After incubating, the reaction was measured on Fluorescence in a 96-black-well plate (excitation wavelength 350 nm, emission wavelength 450 nm). Aminoguaidine (AG) was used as a positive control.
(§1) Inhibition (%): (Ac − As/Ac) × 100. In AR inhibition activity, Ac is absorbance of control and As is absorbance of samples. In AGEs formation inhibition activity, Ac is fluorescence of control and As is fluorescence of samples. […] IC50 values were calculated from the least-squares regression line of the log of concentration plotted against residual activity. All assays were performed in triplicate. Data was presented as mean ± standard deviation (SD).

The next assay deals with T1, aldose reductase (AR) (Rattus norvegicus, UniProt P07943).
T1 construct: The rat lenses were homogenized in 0.1 M sodium phosphate buffer (pH 6.2) and centrifuged; from tissue; host or cells: lens of Sprague-Dawley rats (homogenate supernatant)
The experiment in a line: Aldose reductase (AR) inhibitory activity, rat lens homogenate, decrease of β-NADPH absorption at 340 nm. Type of assay: biochemical, Sprague-Dawley rats. How it is done:
Rat lenses (one lens per 0.5 mL sodium buffer) were obtained from Sprague-Dawley rats (weighing 250~280 g). The rat lenses were homogenized in 0.1 M sodium phosphate buffer (pH 6.2) and centrifuged at 10,000 rpm (4°C, 20 min). After centrifugation, the supernatant was used as an enzyme. AR activity was spectrophotometrically determined by measuring the decrease in the absorption of β-NADPH at 340 nm for a 4 min period using DL-glyceraldehydes as substrates. The assay mixture contained 1.6 mM β-NADPH, 0.1 M potassium phosphate buffer (pH 7.0), AR homogenate, 4 M ammonium sulfate, 0.025 M DL-glyceraldehyde, and the sample in 100% DMSO. The total volume of the assay mixture was 0.3 mL and the reaction was performed in a 96-well plate. 3,3′-Tetramethylene glutaric acid (TMG), a typical AR inhibitor, was used as a positive control.
as §1

The next assay has as its system AR. Further details: method as in PMID 21092751, PMID 18379080. The note with it: previous literature ref 24, 38; cited from earlier work.
[2] abbreviates: BSA 10 mg/mL, 0.4 M fructose and glucose, 60°C, 2 days, mean ± SD.
Where [3] appears, read: rat lens AR, DL-glyceraldehyde substrate, mean ± SD, triplicate, read-out: IC50 AR.

Read-outs that look alike come from different tables or passages of the source. Where only a bound is given, the exact number is not on record here.

What is called IC50 is the concentration that gives 50% inhibition.

`N=C(N)NN` [AG, Aminoguaidine, reference compound]: the “IC50 AGEs formation” value in assay [1] (BSA 10 mg/mL, 0.4 M fructose and glucose, 60°C, 2 days, extract and fractions, mean ± SD) is given as 45.85 ± 7.17^∗∗ μg/ml. The IC50 in assay [1] (setting [2]) is 415 ± 5.96 µM.
Consider `COc1cc2ccc(=O)oc2cc1O` [Compound 1, scopoletin], for which the “inhibition of AR (in words)” value on aldose reductase (AR) (rat lens AR) is given as “minor inhibition”. For the same compound, the IC50 on aldose reductase (AR) (setting [3]) is 90.4 ± 1.91 µM; in assay [1] (setting [2]), 20.7 ± 1.38 µM.
As to `COc1cc2ccc(=O)oc2cc1O[C@@H]1O[C@H](CO)[C@@H](O)[C@H](O)[C@H]1O` [Compound 2, scopolin], the IC50 is 131.37 ± 0.12 µM at aldose reductase (AR) (setting [3]) and 82.4 ± 1.52 µM in assay [1] (setting [2]).
With `COc1cc(O)c2c(=O)cc(-c3ccc(O)cc3)oc2c1` [Compound 3, genkwanin], the IC50 at aldose reductase (AR) (setting [3]) is over 200 µM; in assay [1] (setting [2]), 312 ± 11.3 µM.
On to `COc1c(O)cc2oc(-c3ccc(O)cc3)cc(=O)c2c1O` [Compound 4, hispidulin], for which the IC50 was found to be 2.93 ± 0.11 µM against aldose reductase (AR) and 185.6 ± 0.2 µM in assay [1] (setting [2]).
Regarding `COc1cc(-c2cc(=O)c3c(O)c(OC)c(O)cc3o2)ccc1O` [Compound 5, jaceosidin], the figures for the IC50 (on aldose reductase (AR) (setting [3]); in assay [1] (setting [2])) were 111 ± 9.89 µM and 170 ± 16.4 µM, respectively.
Taken in the same sequence, the figures for `COc1c(O)cc2oc(-c3ccc(O)c(O)c3)c(OC3OC(CO)C(O)C(O)C3O)c(=O)c2c1O` (centres unmarked) [Compound 8, patuletin-3-O-glucoside] were 3.19 ± 0.1 µM and 197 ± 11 µM.
As to `O=c1c(O[C@@H]2O[C@H](CO)[C@@H](O)[C@H](O)[C@H]2O)c(-c2ccc(O)c(O)c2)oc2cc(O)cc(O)c12` [Compound 9, isoquercetin], the IC50 at aldose reductase (AR) (setting [3]) turned out to be 3.32 ± 0.21 µM; in assay [1] (setting [2]), 67.4 ± 9.95 µM.
`C[C@@H]1O[C@@H](OC[C@H]2O[C@@H](Oc3c(-c4ccc(O)c(O)c4)oc4cc(O)cc(O)c4c3=O)[C@H](O)[C@@H](O)[C@@H]2O)[C@H](O)[C@H](O)[C@H]1O` [Compound 11, rutin]: the results for the half-inhibitory concentration (IC50) (at aldose reductase (AR) (setting [3]); in assay [1] (setting [2])) were 12.5 ± 0.2 µM and 129 ± 4.01 µM, respectively.
In the case of `O=C(/C=C/c1ccc(O)c(O)c1)OC1CC(O)(C(=O)O)CC(O)C1O` (centres unmarked) [Compound 12, 3-O-caffeoylquinic acid], the figures for the IC50 (at aldose reductase (AR) (setting [3]); in assay [1] (setting [2])) were 4.54 ± 0.16 µM and 176 ± 5.77 µM, respectively.
Consider `O=C(/C=C/c1ccc(O)c(O)c1)OC1CC(OC(=O)/C=C/c2ccc(O)c(O)c2)(C(=O)O)CC(O)C1O` (centres unmarked) [Compound 13, 1,3-di-O-caffeoylquinic acid], for which the “inhibition of AR (in words)” value at aldose reductase (AR) (rat lens AR) is “strongest inhibition”. Also, the figures for the IC50 (on aldose reductase (AR) (setting [3]); in assay [1] (setting [2])) were 0.22 ± 0.01 µM and 24.9 ± 1.86 µM, respectively.
`O=C(/C=C/c1ccc(O)c(O)c1)OC1CC(O)(C(=O)O)CC(O)C1OC(=O)/C=C/c1ccc(O)c(O)c1` (centres unmarked) [Compound 14, 3,4-di-O-caffeoylquinic acid]: the IC50 is 1.9 ± 0.01 µM at aldose reductase (AR) (setting [3]) and 124 ± 4.25 µM in assay [1] (setting [2]).
`O=C(/C=C/c1ccc(O)c(O)c1)OC1CC(O)(C(=O)O)CC(OC(=O)/C=C/c2ccc(O)c(O)c2)C1O` (centres unmarked) [Compound 15, 3,5-di-O-caffeoylquinic acid] yielded an IC50 in assay [1] (setting [2]) of 31.8 ± 0.56 µM.
Regarding `COC(=O)C1(O)CC(OC(=O)/C=C/c2ccc(O)c(O)c2)C(O)C(OC(=O)/C=C/c2ccc(O)c(O)c2)C1` (centres unmarked) [Compound 16, 3,5-di-O-caffeoylquinic acid methyl ester], the IC50 on aldose reductase (AR) (setting [3]) amounted to 1.48 ± 0.04 µM; in assay [1] (setting [2]) it was 44.5 ± 4.86 µM.
Consider `CC1(C)C(O)CCC2(C)C3CCC4CC3(CCC12)CC4(O)COC1OC(CO)C(O)C(O)C1O` (centres unmarked) [Compound 17, iwayoside A], for which, at aldose reductase (AR) (setting [3]), the IC50 is over 200 µM.
The same measure, in the same setting: the same measure for `CC1(C)C(O)CCC2(C)C3CCC4CC3(CCC12)CC4(O)COC1OC(CO)C(O)C(O)C1O` (centres unmarked) [Compound 18, suavioside A]: over 200 µM; for `CC1(C)C(=O)CCC2(C)C3CCC4CC3(CCC12)CC4(O)COC1OC(CO)C(O)C(O)C1O` (centres unmarked) [Compound 19, sugeroside]: over 200 µM.
Take `COc1cc(OC2OC(CO)C(O)C(O)C2O)cc(O)c1C(C)=O` [Compound 20, 2,4-dihydroxy-6-methoxyacetophenone 4-O-β-D-glucopyranoside]: the IC50 is over 200 µM at aldose reductase (AR) (setting [3]) and 1049 ± 0.11 µM in assay [1] (setting [2]). Further, the “inhibition of AGEs formation (in words)” value in assay [1] (BSA/fructose/glucose) is reported as “only slight inhibition”.
As for `O=C(O)CC1(CC(=O)O)CCCC1` [TMG, 3,3′-Tetramethylene glutaric acid, reference compound], the “IC50 AR” value on aldose reductase (AR) (rat lens AR, DL-glyceraldehyde substrate, extract and fractions, mean ± SD, triplicate) is 1.22 ± 0.03^∗ μg/ml. In addition, the IC50 on aldose reductase (AR) (setting [3]) is 6.58 ± 0.19 µM.
As to `O=C(O)/C=C/c1ccc(O)c(O)c1` [caffeic acid], the “inhibitory activity on AR (in words)” value in the assay on AR is reported as “no inhibitory activity”.
